# Results taken from patent US9802897B2, “Amidopyridinol derivative or pharmaceutically acceptable salt thereof and pharmaceutical composition comprising same as active component” (Research Cooperation Foundation of Yeungnam University, priority 2013, dated 2017).
# Assays:
# [1] = tested on: cathepsin S; assay: RT-PCR of cathepsin S gene expression in MDA-MB-231 cells; format: cell-based; settings: Homo sapiens, MDA-MB-231, 24 h, screening, 1 μM of each compound; MDA-MB-231, RT-PCR; read-out: Inhibition rate of expression of cathepsin S (%)
# Protocol: Each compound of the present invention was treated with breast cancer cells (1×10^5 cell/cm^2), e.g., MDA-MB-231, and then, cultured at a temperature of 37° C. for 24 hours in a cell incubator. Afterwards, a trizole reagent was used to extract the entire mRNA therefrom. 24 hours later, the culture medium was removed therefrom, 1 mL of the triazole reagent was added to each well, and then, the cell elusion was transferred to a 1.5 mL tube. After 200 μl of chloroform was added to each sample, the samples were subjected to centrifugation at a temperature of 4° C., at 12,000 g, for 15 minutes. 500 μl of the supernatant obtained therefrom was transferred to a new tube. After 500 μl of isopropylalcohol was added to each sample, the samples were subjected to centrifugation at a temperature of 4° C., at 12,000 g, for 15 minutes. The supernatant obtained therefrom was removed from each sample, and then, the samples were washed with 75% ethanol to clean mRNA while the precipitants were dried. Then, mRNA extracted therefrom was dissolved in RNase-free water, followed by being heated at a temperature of 55° C. for 10 minutes.
# After the RNA quantification, the GoScript™ reverse transcription system (Promega Corporation, Madison, Wis., USA) was used to synthesize cDNA. Here, PCR was performed by using TaKaRa Taq™ (Takara bio Inc., Shiga, Japan), wherein a primer set of cathepsin S consists of a forward primer having SEQ ID NO: 1 (forward sequence: 5′-GCAGTGGCACAGTTGCATAA-3′) and a reverse primer having SEQ ID NO: 2 (reverse sequence: 5′-AGCACCACAAGAACCCATGT-3′). After the PCR product was subjected to agarose gel electrophoresis, the PCR product was stained with ethidium bromide (0.5 μg/ml), thereby obtaining images thereof by using the gel imaging system (UVP, Cambridge, UK). Here, the PCR product was quantified based on glyceraldehyde 3-phosphate dehydrogenase (GAPDH). A GAPDH primer used herein consists of a forward primer having SEQ ID NO: 3 (forward sequence: 5′-GGTGAAGGTCGGAGTCAACG-3′) and a reverse primer having SEQ ID NO: 4 (reverse sequence: 5′-CAAAGTTGTCATGGATGACC-3′).
# Furthermore, to screen other amidopyridinol derivatives that inhibit metastasis of breast cancer cells, inhibitory effects on expression of cathepsin S genes were reviewed by treating 1 μM of each compound, in the same manner as in Experimental Example 9.
# [2] = tested on: HUVEC cells; assay: Scavenging of VEGF-induced ROS in HUVEC cells (DCF-DA fluorescence); format: cell-based; settings: pre-treated 3 hours, induced by VEGF 15 minutes, vs VEGF-induced cells
# Protocol: To measure scavenging effects of ROS in HUVEC cells that were induced by VEGF, 2′,7′-dichlorofluorescein diacetate (DCF-DA) was used. […] After […] at a concentration of 1×10^5, each of which well was coated with 0.2% gelatin, DCF-DA was cultured for 24 hours. Meanwhile, Compounds 8a and 8b were pre-treated for 3 hours, induced by VEGF for 15 minutes, and then, washed with PBS (pH 7.4) three times. Then, 10 μM of DCF-DA was placed in a EBM-2 medium to be treated for 30 minutes in a dark room. Then, DCF-DA was washed again with PBS three times, and then, subjected to measure intensity of fluorescence in the cells by using a fluorescence microscope.
Structure (SMILES),inhibition at 1 µM [1] [%],intensity of fluorescence in the cells (ROS) [2]
"CC(=O)Nc1nc(C)c(O)c(C)c1C [Compound 8a, N-(5-hydroxy-3,4,6-trimethylpyridine-2-yl)acetamide]",≥ 50,significant decrease in the intensity of fluorescence
"CCCCCCCCCCCC(=O)Nc1nc(C)c(O)c(C)c1C [Compound 8b, N-(5-hydroxy-3,4,6-trimethylpyridine-2-yl)dodecanamide]",≥ 50,significant decrease in the intensity of fluorescence
